Results on 1 compound are retold here after US20210052566A1, “METHODS FOR TREATING HEPATITIS B VIRUS (HBV) INFECTION” (INSERM (INSTITUT NATIONAL DE LA SANTÉ ET DE LA RECHERCHE …, priority 2018, published 2021).

The test system of assay [1] is HBV genotype D. Description: Anti-HBV properties in persistently infected dHepaRG cells, genotype D (post-infection treatment). The assay is classed as cell-based, Hepatitis B virus. How it is done: FIG. 1. Experimental outlines. Treatment schemes: (a) Treatments in pre-infection: dHepaRG cells were treated for 24 h (at day −1) with 100 nM of PreS1 peptide (PreS1-pep) or 10 μM of 1C8, or untreated (NT). At day 0, cells were inoculated with HBV (MOI=250) or with HDV (MOI=25) in the presence of drugs for 24 h. For the tenofovir control (TDF at 10 μM), cells were treated at day 1 and 4 post-infection. Supernatant and cells were harvested at day 7 post-infection. (b) Treatments in post-infection: dHepaRG cells were inoculated with HBV (MOI=250) or with HDV (MOI=25). At days 4, 7 and 9 post infection, cells were treated with TDF 10 μM, lamivudine (3TC) at 10 μM, 1C8 10 μM or untreated (NT). Supernatant and cells were harvested at day 11 postinfection.
FIG. 5. Anti-HBV properties of 1C8 in persistently infected dHepaRG cells: genotype D. Differentiated HepaRG were infected with HBV genotype D at a MOI of 100 vge/cell or HDV genotype 1 at a MOI of 10 vge/cell for 7 days before being treated trice every 2-3 days with indicated molecules at a concentration of 10 microM. A) Total DNA and RNA were extracted from cells and subjected to qPCR and RTqPCR to detect HBV cccDNA, total HBV RNA or pregenomic HBV RNA. B) HBs and HBe secreted antigens in supernatant were quantified by ELISA, whereas HBV DNA contained in virions was quantified by qPCR after viral nucleic acid extraction from supernatant. C) Intracellular HDV RNA was quantified by RTqPCR after total RNA extraction from cells. D) Viability was monitored in 1C8-treated (or control treated; puromycin is a positive toxic molecule) cells by CellTiter-Glo® luminescent cell viability assay. Results are the mean+SEM of n=3 performed with 3 different differentiations of HepaRG. Statistics were done by two-tailed Mann-Whitney test, with following significativity: *P<0.05, **P<0.01, ***P<0.001, ****P<0.0001. nd=not determined
Human liver progenitor HepaRG cells were cultured in Williams medium (ThermoFisher) supplemented with 10% of FBS (Perbio), Penicillin/Streptomycin (500 U/mL), glutamine (2 mM), hydrocortisone Upjohn (2.5 mg/L; Serb laboratory), insulin (5 mg/L; Sigma Aldrich). For the differentiation process 2% of DMSO was added to the above-described supplemented Williams medium. […] The multiplicity of infection (MOI; expressed as virus genome equivalent/cell) is indicated in the figure legends, but was of 100 vge/cell if not precised.
From cell culture supernatants, secreted HBe and HBs antigens were quantified by ELISA, using a chemiluminescence immunoassay kit (Autobio, China) following manufacturer's instructions. […]
A HBV standard was used for quantification of extracellular viral DNA and RNA. […]

Assay [2] concerns HBV genotype D. Put plainly: HBV replication in persistently infected primary human hepatocytes (PHH). It counts as cell-based, Hepatitis B virus. The note with it: 10 microM. The text has this: FIG. 9. Effect of 1C8 on persistently infected primary human hepatocytes. Two different batches of PHH from two different donors were used in these experiments (Batch 1: panels A, B, and C; Batch 2: panels D, and E). A) PHH were infected with HBV genotype D at a MOI of 100 vge/cell for 4 days before being treated trice every 2-3 days with indicated molecules at a concentration of 10 microM. B) Intracellular total RNA were extracted from cells and subjected to RT-qPCR to detect HBV pgRNA and total HBV RNA. C) HBs and HBe secreted antigens in supernatant were quantified by ELISA. D) PHH were infected with HBV genotype D at a MOI of 100 vge/cell. 6 days after the infection, cells were treated five times with indicated molecules at a concentration of 10 microM. Supernatant was harvested after each treatment and cells were harvested at day 13 post infection. E) HBe and HBs secreted antigens in supernatant were quantified by ELISA. Results are the mean+SD of n=3 (panels A, B, and C) or n=4 (panels D and E).
Primary human hepatocytes (PHH) were freshly prepared from human liver resections obtained from the Centre Léon Bérard (Lyon) with French ministerial authorizations as previously described (Leycluse and Alexandre, 2010). […]
Secreted HBe and HBs antigens and intracellular HBV RNA were analyzed as described in EXAMPLE 1.

`Cn1ccc(=O)c(C(=O)Nc2nsc3ccc([N+](=O)[O-])cc23)c1` [1C8, 4-pyridinonebenzisothiazole carboxamide]: the “reduction of secretion of viral antigens (HBs and HBeAg) in cell culture supernatant” value in assay [1] (10 microM three times, ELISA) is listed as 60-70%. Besides, in assay [1] (10 microM three times, qPCR), the “reduction of HBV virions (secreted HBV DNA) in cell culture supernatant” value is 60-70%. Further, the “reduction of the accumulation of intracellular HBV RNA” value in assay [1] (MOI 100 vge/cell, treated three times every 2-3 days with 10 microM) is given as 60-70%. Besides, the “amount of intracellular viral RNAs (total and pgRNA)” value in assay [2] is “significant reduction”. In assay [2] (two donors, MOI 100 vge/cell), the “decrease of secreted viral antigens HBe and HBs (viral replication)” value is more than 60%.
